This is an account of results in patent EP0660840B1 (priority 1992, dated 1994).

SMILES strings stand for the structures.

In assay [1] the test system is plasma ANF. Briefly: Effect on rat plasma ANF concentration during continuous ANF infusion (radioimmunoassay). Type of assay: in vivo, Male Sprague-Dawley rats. Particulars: about 10 mg/kg p.o., in 10% ethanol/polyethylene glycol 400; conscious rats infused with ANF 450 ng/kg/min i.v. As for the experimental part:
The effect of the compounds of the invention on rat plasma ANF concentration can be determined as follows:
Male Sprague-Dawley rats (275-390 g) are anesthetized with ketamine (150 mg/kg)/acepromazine (10%) and instrumented with catheters in the femoral artery and vein to obtain blood samples and infuse ANF, respectively. The rats are tethered with a swivel system and are allowed to recover for 24 hours before being studied in the conscious, unrestrained state.
In this assay, plasma ANF levels are determined in the presence and absence of NEP inhibition. On the day of study, all rats are infused continuously with ANF at 450 ng/kg/min. i.v. for the entire 5 hours of the experiment. Sixty minutes after beginning the infusion, blood samples for baseline ANF measurements are obtained (time 0) and the rats are then randomly divided into groups treated with the test compound or vehicle. Additional blood samples are taken 30, 60, 120, 180 and 240 minutes after administration of the test compound.
Plasma concentrations are determined by a specific radioimmunoassay. […] The supernatant is decanted and the pellets counted in a gamma counter. […] Plasma ANF levels are expressed as a percent of those measured in vehicle-treated animals which received ANF alone (450 ng/kg/min i.v.).

The subject of assay [2] is DOCA-salt hypertensive rats. Briefly: Antihypertensive effect in DOCA-salt hypertensive rats. Type of assay: in vivo. Particulars: 10 mg/Kg p.o., in PEG 400; DOCA-salt hypertensive rat model. As for the experimental part:
The antihypertensive effect can be determined in desoxycorticosterone acetate (DOCA)-salt hypertensive rats.
DOCA-salt hypertensive rats (280-380 g) are prepared by the standard method. Rats underwent a unilateral nephrectomy and one week later are implanted with silastic pellets containing 100 mg/kg of DOCA. The rats are maintained on 1% NaCl/0.2% KCI drinking water for three to five weeks until sustained hypertension is established. The antihypertensive activity is evaluated at this time.
Two days before an experiment, the rats are anesthetized with methoxyflurane and instrumented with catheters in the femoral artery to measure arterial blood pressure. Forty-eight hours later, baseline arterial pressure and heart rate are recorded during a 1 hour period. The test compound or vehicle is then administered and the same cardiovascular parameters are monitored for an additional 5 hours.

For the molecule `O=P(CN[C@@H](Cc1ccc(-c2ccccc2)cc1)c1nnn[nH]1)(Oc1ccccc1)Oc1ccccc1` [Example 3, (S)-[2-Biphenyl-4-yl-1-(1H-tetrazol-5-yl)-ethylamino]-methylphosphonic acid diphenyl ester], in assay [1], the “plasma ANF levels” value was “significant increases”. Also, the blood pressure entry in assay [2] was “significant reduction”.
